Data taken from ChEMBL document CHEMBL1201862, “PubChem BioAssay data set” (2004).
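How tested: cells in 96-well plates exposed to compound for 48 hours at five concentrations. GI50 is the concentration that inhibits growth by half.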 The source made the active and inactive calls. No stated cut-off is given here; in the data, active = GI50 up to about 1.1 µM and inactive = higher.

Assays:
Test in all cases: NCI-60 cell line screen, 48 h
786-0 = tested on: 786-0
A498 = tested on: A498
A549 = tested on: A549
ACHN = tested on: ACHN
BT-549 = tested on: BT-549
CAKI-1 = tested on: CAKI-1
CCRF-CEM = tested on: CCRF-CEM
COLO 205 = tested on: COLO 205
DU-145 = tested on: DU-145
EKVX = tested on: EKVX
HCC 2998 = tested on: HCC 2998
HCT-116 = tested on: HCT-116
HCT-15 = tested on: HCT-15
HL-60 = tested on: HL-60
HOP-62 = tested on: HOP-62
Hs-578T = tested on: Hs-578T
IGROV-1 = tested on: IGROV-1
K562 = tested on: K562
KM12 = tested on: KM12
LOX IMVI = tested on: LOX IMVI
M14 = tested on: M14
MCF7 = tested on: MCF7
MDA-MB-231 = tested on: MDA-MB-231
MDA-MB-435 = tested on: MDA-MB-435
MDA-N = tested on: MDA-N
MOLT-4 = tested on: MOLT-4
Malme-3M = tested on: Malme-3M
NCI-H226 = tested on: NCI-H226
NCI-H23 = tested on: NCI-H23
NCI-H460 = tested on: NCI-H460
NCI-H522 = tested on: NCI-H522
NCI/ADR-RES = tested on: NCI/ADR-RES
OVCAR-3 = tested on: OVCAR-3
OVCAR-4 = tested on: OVCAR-4
OVCAR-5 = tested on: OVCAR-5
OVCAR-8 = tested on: OVCAR-8
PC-3 = tested on: PC-3
RPMI-8226 = tested on: RPMI-8226
RXF 393 = tested on: RXF 393
SF-268 = tested on: SF-268
SF-295 = tested on: SF-295
SF-539 = tested on: SF-539
SK-MEL-28 = tested on: SK-MEL-28
SK-MEL-2 = tested on: SK-MEL-2
SK-MEL-5 = tested on: SK-MEL-5
SK-OV-3 = tested on: SK-OV-3
SN12C = tested on: SN12C
SNB-19 = tested on: SNB-19
SNB-75 = tested on: SNB-75
SR = tested on: SR
SW-620 = tested on: SW-620
T47D = tested on: T47D
TK-10 = tested on: TK-10
U-251 = tested on: U-251
UACC-257 = tested on: UACC-257
UACC-62 = tested on: UACC-62
UO-31 = tested on: UO-31
HOP-92 = tested on: HOP-92
HT-29 = tested on: HT-29

Measured: GI50

CCN1C(=O)CS/C1=N\NC(=O)CSc1nc2ccccc2c(=O)n1CC
inactive: 786-0 > 100 µM | A498 > 100 µM | A549 > 100 µM | ACHN > 100 µM | BT-549 > 100 µM | CAKI-1 > 100 µM | CCRF-CEM > 100 µM | COLO 205 > 100 µM | DU-145 > 100 µM | EKVX > 100 µM | HCC 2998 > 100 µM | HCT-116 > 100 µM | HL-60 96.4 µM | HOP-62 > 100 µM | Hs-578T > 100 µM | IGROV-1 > 100 µM | K562 > 100 µM | KM12 > 100 µM | LOX IMVI > 100 µM | M14 > 100 µM | MCF7 > 100 µM | MDA-MB-231 > 100 µM | MDA-MB-435 > 100 µM | MDA-N > 100 µM | MOLT-4 > 100 µM | Malme-3M > 100 µM | NCI-H226 > 100 µM | NCI-H23 > 100 µM | NCI-H460 10.3 µM | NCI-H522 > 100 µM | NCI/ADR-RES > 100 µM | OVCAR-3 > 100 µM | OVCAR-4 > 100 µM | OVCAR-5 > 100 µM | OVCAR-8 > 100 µM | PC-3 > 100 µM | RPMI-8226 > 100 µM | RXF 393 65.9 µM | SF-268 > 100 µM | SF-295 > 100 µM | SF-539 > 100 µM | SK-MEL-28 > 100 µM | SK-MEL-2 > 100 µM | SK-MEL-5 > 100 µM | SK-OV-3 > 100 µM | SN12C > 100 µM | SNB-19 > 100 µM | SNB-75 > 100 µM | SR > 100 µM | SW-620 > 100 µM | T47D > 100 µM | TK-10 > 100 µM | U-251 > 100 µM | UACC-257 > 100 µM | UACC-62 > 100 µM | UO-31 > 100 µM
> 100 µM: HCT-15

O=C(O)CCCC(=O)Nn1c(Cc2ccc(Cl)cc2)n[nH]c1=O
> 100 µM: HCT-15
inactive: 786-0 > 100 µM | A498 71.6 µM | A549 > 100 µM | ACHN > 100 µM | BT-549 > 100 µM | CAKI-1 > 100 µM | CCRF-CEM > 100 µM | COLO 205 > 100 µM | DU-145 > 100 µM | EKVX > 100 µM | HCT-116 > 100 µM | HL-60 26.9 µM | HOP-62 > 100 µM | HOP-92 > 100 µM | HT-29 > 100 µM | Hs-578T > 100 µM | IGROV-1 > 100 µM | K562 > 100 µM | KM12 > 100 µM | LOX IMVI > 100 µM | M14 > 100 µM | MCF7 > 100 µM | MDA-MB-231 > 100 µM | MDA-MB-435 > 100 µM | MDA-N > 100 µM | MOLT-4 > 100 µM | Malme-3M > 100 µM | NCI-H226 > 100 µM | NCI-H23 > 100 µM | NCI-H522 71.8 µM | NCI/ADR-RES > 100 µM | OVCAR-3 > 100 µM | OVCAR-4 > 100 µM | OVCAR-5 > 100 µM | OVCAR-8 > 100 µM | PC-3 > 100 µM | RPMI-8226 > 100 µM | RXF 393 > 100 µM | SF-268 > 100 µM | SF-295 > 100 µM | SK-MEL-28 > 100 µM | SK-MEL-2 > 100 µM | SK-MEL-5 > 100 µM | SK-OV-3 > 100 µM | SN12C > 100 µM | SNB-75 > 10 µM | SR > 100 µM | SW-620 > 100 µM | T47D > 100 µM | TK-10 > 100 µM | U-251 > 100 µM | UACC-257 > 100 µM | UACC-62 > 100 µM | UO-31 14.9 µM

COc1ccc(OC)c(C23CCCC(C2)N(C)CC3)c1 (stereo not drawn)
inactive: 786-0 25.3 µM | A498 32.3 µM | A549 22.3 µM | ACHN 26.9 µM | BT-549 30.8 µM | CAKI-1 46.5 µM | DU-145 32.7 µM | EKVX 43.6 µM | HCT-116 13.8 µM | HT-29 14.9 µM | Hs-578T 38.1 µM | K562 17 µM | KM12 18.4 µM | M14 17.6 µM | MCF7 16.6 µM | MDA-MB-231 21.3 µM | MDA-MB-435 20.1 µM | MDA-N 27.4 µM | MOLT-4 32.1 µM | NCI-H23 32.1 µM | NCI-H460 19.2 µM | NCI/ADR-RES 60.3 µM | OVCAR-3 19.6 µM | OVCAR-4 24.9 µM | OVCAR-5 40 µM | PC-3 16.4 µM | RPMI-8226 12.7 µM | RXF 393 29.9 µM | SF-268 44.6 µM | SF-295 38.5 µM | SK-MEL-2 21.8 µM | SN12C 28.2 µM | SNB-19 6.75 µM | SR 18.4 µM | T47D 33.3 µM | TK-10 40.3 µM | U-251 11.7 µM | UACC-257 36.6 µM | UACC-62 20.9 µM | UO-31 28.6 µM
34 µM: HCT-15
